Data on one cell line can be found in the supplement of paper PMC10307832.

Assay in all cases: relative viability (nuclei count vs DMSO), 5 days (fraction); higher = more cells survive
Compound in the experiment “Tosedostat + Luminespib”: CC(C)C[C@@H](C(=O)N[C@H](C(=O)OC1CCCC1)c1ccccc1)[C@H](O)C(=O)NO [Tosedostat] + CCNC(=O)c1noc(-c2cc(C(C)C)c(O)cc2O)c1-c1ccc(CN2CCOCC2)cc1 [Luminespib] (partner 0.01 µM)
The method in brief: (§1)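 Lung cancer cell lines were pin-tool dosed in 1536-well plates on the day after seeding, with either a lone drug or a fixed anchor-drug dose plus five library-drug doses (not always all listed) in √10 steps. Nuclei were counted on 4× images after 5 days. Relative viability is the ratio of treated-well to vehicle-well nuclei counts, with each value a median of duplicate plates.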

Compound in experiment [1]: CC1=NN=C(O1)C2=NN=C(C=C2)N3CCC(CC3)OC4=C(C=CC(=C4)F)Cl + CC(=O)c1c(C)c2cnc(Nc3ccc(N4CCNCC4)cn3)nc2n(C2CCCC2)c1=O [Palbociclib] (partner 0.5 µM)
The method in brief:
as §1

Compound in experiment [2]: CC1=NN=C(O1)C2=NN=C(C=C2)N3CCC(CC3)OC4=C(C=CC(=C4)F)Cl + N=C(N)NC(=N)NCCc1ccccc1 [Phenformin] (partner 250 µM)
Put shortly:
as §1

Compound in experiment [3]: CC1=NN=C(O1)C2=NN=C(C=C2)N3CCC(CC3)OC4=C(C=CC(=C4)F)Cl + O=C(c1cc(Cc2n[nH]c(=O)c3ccccc23)ccc1F)N1CCN(C(=O)C2CC2)CC1 [Olaparib] (partner 8 µM)
Put shortly:
as §1

Consider UMC-11, for which the relative viability worked out at 1.01 with Tosedostat + Luminespib (first compound 0.02 µM); 0.999 in the experiment with Tosedostat + Luminespib (first compound 0.06325 µM); 1.03 in the experiment with Tosedostat + Luminespib (first compound 0.2 µM); 0.977 with Tosedostat + Luminespib (first compound 0.6325 µM); 1.12 in the experiment with Tosedostat + Luminespib (first compound 2 µM); 0.303 in experiment [1] (first compound 0.253 µM). For the same cell line, the relative viability was determined as 0.271 in experiment [1] (first compound 0.8 µM); 0.3 in experiment [1] (first compound 2.53 µM); 0.39 in experiment [1] (first compound 8 µM); 0.288 in experiment [2] (first compound 0.253 µM); 0.291 in experiment [2] (first compound 0.8 µM); 0.263 in experiment [2] (first compound 2.53 µM). The relative viability is 0.263 in experiment [2] (first compound 8 µM); 0.244 in experiment [3] (first compound 0.253 µM); 0.379 in experiment [3] (first compound 0.8 µM); 0.396 in experiment [3] (first compound 2.53 µM); 0.233 in experiment [3] (first compound 8 µM).
